{"source": "paper PMC6811774", "about": "“Potent, selective, and subunit‐dependent activation of TRPC5 channels by a xanthine derivative” (British Journal of Pharmacology, 2019)", "key": {"[1]": {"target": "T1, TRPC5-SYFP2 (TRPC5:C5 channels) (Homo sapiens, UniProt Q9UL62)", "T1 construct": "expressed in transfected cells", "T1 sequence (Q9UL62 1-973)": "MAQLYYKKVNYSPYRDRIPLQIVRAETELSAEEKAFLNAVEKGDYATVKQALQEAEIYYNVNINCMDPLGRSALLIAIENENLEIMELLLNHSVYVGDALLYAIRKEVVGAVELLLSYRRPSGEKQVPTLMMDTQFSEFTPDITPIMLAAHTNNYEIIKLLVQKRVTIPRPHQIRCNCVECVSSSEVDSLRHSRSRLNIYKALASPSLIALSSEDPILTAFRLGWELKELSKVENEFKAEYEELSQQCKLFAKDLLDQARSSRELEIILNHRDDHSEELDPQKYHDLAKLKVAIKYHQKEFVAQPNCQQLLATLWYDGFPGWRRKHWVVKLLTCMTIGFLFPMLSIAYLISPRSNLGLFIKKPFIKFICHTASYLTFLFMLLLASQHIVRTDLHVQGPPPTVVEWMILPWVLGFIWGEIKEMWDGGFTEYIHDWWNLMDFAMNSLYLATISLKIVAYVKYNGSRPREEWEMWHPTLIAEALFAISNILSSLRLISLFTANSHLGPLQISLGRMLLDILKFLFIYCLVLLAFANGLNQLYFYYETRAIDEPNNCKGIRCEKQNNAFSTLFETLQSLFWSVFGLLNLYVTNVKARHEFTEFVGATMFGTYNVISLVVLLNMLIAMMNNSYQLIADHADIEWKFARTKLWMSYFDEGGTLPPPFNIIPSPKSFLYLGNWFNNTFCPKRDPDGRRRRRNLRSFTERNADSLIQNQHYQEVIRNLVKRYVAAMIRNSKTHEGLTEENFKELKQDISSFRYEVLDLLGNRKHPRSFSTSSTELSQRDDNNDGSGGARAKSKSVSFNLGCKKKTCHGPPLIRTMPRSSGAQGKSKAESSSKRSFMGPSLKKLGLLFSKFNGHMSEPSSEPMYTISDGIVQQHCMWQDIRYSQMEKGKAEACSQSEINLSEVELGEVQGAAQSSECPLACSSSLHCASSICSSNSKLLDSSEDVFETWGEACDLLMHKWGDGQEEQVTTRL", "assay": "[Ca2+]i measurement (Fura-2, FlexStation) in (Tet+) HEK T-REx cells expressing hTRPC5-SYFP2", "type": "cell-based", "description": "To facilitate cloning of TRPC5‐SYFP2 and TRPC4‐SYFP2, a pcDNA™4/TO expression vector (ThermoFisher Scientific, Waltham, MA, USA), into which a four amino acid linker (ASAS) flanked by AgeI and SacII restriction sites had been introduced between EcoRI and XhoI restriction sites, was used (Naylor et al., 2016). Human TRPC4β was inserted between BamHI and AgeI restriction sites as described previously (Ludlow et al., 2017). Human TRPC5 (forward primer: 5′ GCTTGGTACCGCCACCATG 3′ and reverse primer: 5′ […] 3′) was inserted upstream of the linker between KpnI and AgeI restriction sites using hTRPC5/pcDNA™4/TO (Zeng et al., 2004) as a PCR template. Both constructs contained an N‐terminal Kozak sequence. SYFP2 was inserted downstream of the linker between SacII and XbaI restriction sites using pSYFP2‐C1 as a PCR template (forward primer, 5′ […] 3′; reverse primer, 5′ […] 3′). pSYFP2‐C1 was a gift from Dorus Gadella (Addgene plasmid #22878; http://n2t.net/addgene:22878; RRID:Addgene_22878; Kremers, Goedhart, van Munster, & Gadella, 2006). Plasmids were sequenced to verify identity.\nHEK T‐REx™ cell line was transfected with TRPC5‐SYFP2 or TRPC4‐SYFP2 using FuGENE® HD transfection reagent. After 48 hr, cells were put under antibiotic selection using 400 μg·ml^−1 zeocin and 10 μg·ml^−1 blasticidin S (Invivogen, San Diego, California, USA). Medium changes were carried out regularly to remove dead cells. HEK T‐REx cells expressing tetracycline‐inducible human TRPC5, TRPC4–C1, and TRPC5–C1 were created as described previously (Akbulut et al., 2015; Ludlow et al., 2017; Rubaiy, Ludlow, Henrot, et al., 2017). TRPC5–C1 and TRPC4–C1 concatemers allow expression of functional channels with defined 2:2 stoichiometry that display ion permeability and current–voltage relationships distinct from those of homomeric TRPC4:C4 or TRPC5:C5 channels and consistent with those obtained upon co‐expression of TRPC1 with TRPC4 or TRPC5 (Ludlow et al., 2017; Rubaiy, Ludlow, Bon, & Beech, 2017; Rubaiy, Ludlow, Henrot, et al., 2017). Cells were cultured in DMEM‐F12 GlutaMAX (Invitrogen, Paisley, UK) containing 10% FBS (Sigma‐Aldrich, Gillingham, UK), with the addition of blasticidin (10 μg·ml^−1) and zeocin (400 μg·ml^−1) to maintain the stable incorporation of the tetracycline repressor and the channel of interest, respectively. Expression of proteins was induced by the addition of tetracycline (1 μg·ml^−1, 24 hr). Cells were maintained in a humidified incubator with 5% CO2 at 37°C. HEK 293 cells stably expressing tetracycline‐regulated human http://www.guidetopharmacology.org/GRAC/ObjectDisplayForward?objectId=494 were prepared similarly and have also been described previously (McHugh, Flemming, Xu, Perraud, & Beech, 2003). For experiments using transient co‐expression of TRPC1 and TRPC5, HEK cells at 40–60% confluency were transfected with pIRES2‐AcGFP1 and pIRES2‐DsRed‐Express2 plasmids containing human TRPC1 and TRPC5, respectively, using Lipofectamine 3000 (ThermoFisher Scientific, Yokohama, Japan). All experiments using transient expression were performed within 48 hr after transfection. A498 cells were cultured in Minimum Essential Medium containing Earle's salts (ThermoFisher Scientific, Loughborough, UK), supplemented with 10% FBS and penicillin–streptomycin (100 units per ml^−1, 100 μg·ml^−1; ThermoFisher Scientific, Loughborough, UK). CHO cells stably expressing http://www.guidetopharmacology.org/GRAC/ObjectDisplayForward?objectId=510 were maintained in Ham's Nutrient Mixture F12 (ThermoFisher Scientific, Loughborough, UK) supplemented with 10% FBS, penicillin–streptomycin, and 1 mg·ml^−1 G418 (InvivoGen, San Diego, California, USA). For experiments using hTRPC3 and hTRPC6, WT HEK 293 cells were transfected with hTRPC3 (Naylor et al., 2016) or hTRPC6 (cloned into pcDNA3) using jetPRIME® transfection reagent (VWR, Lutterworth, UK). Cells were assayed 48 hr after transfection. […]"}, "TRPC5:C5": {"system": "TRPC5:C5", "design": "method as in Rubaiy, Ludlow, Henrot, et al., 2017", "conditions": "EA-mediated activation, 10 nM EA; ref Rubaiy, Ludlow, Henrot, et al., 2017; read-out: IC50, inhibition of TRPC5:C5; cited from earlier work"}}, "note": "Several values for one entry are separate records, joined by “and”; a condition that tells them apart may be missing. Equal entries are not always repeated."}
{"smiles": "Cn1c(=O)n(CCCO)c(=O)c2c1nc(Oc1cccc(OC(F)(F)F)c1)n2Cc1ccc(Cl)cc1", "note": "[Pico145, reference compound]", "values": [{"measurement": "IC50", "setting": "[1]", "value": 2, "unit": "nM"}, {"measurement": "Concentration giving maximal inhibition of AM237 response", "setting": "[1]; 100 nM AM237", "value": 10, "unit": "nM"}, {"measurement": "Hill slope, inhibition of AM237 response", "setting": "[1]; 100 nM AM237", "value": "–1.3"}, {"measurement": "Mode of inhibition of AM237-mediated TRPC5:C5 activation", "setting": "[1]; surmountable, parallel rightward shifts, confirmed by patch-clamp", "value": "competitive antagonist"}, {"measurement": "IC50", "setting": "TRPC5:C5", "value": "1 nM and ~1 nM"}]}
